According to patent EP4603105A1, “PHARMACEUTICAL COMPOSITION CONTAINING CYCLIC COMPOUND HAVING SELECTIVE KRAS INHIBITORY EFFECT AGAINST HRAS AND NRAS” (CHUGAI SEIYAKU KABUSHIKI KAISHA, priority 2022, dated 2024):

What was measured:
HRAS wild-type protein = HRAS wild-type protein (Homo sapiens, UniProt P01112); assay: Binding to HRAS by surface plasmon resonance (SPR), KD and KD ratio to KRAS
How it was run: (§1)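 GDP-bound biotin-Avi RAS captured at ~100–300 RU, 30°C, pH 7.4 HBS containing 10 µM GDP, 10 mM MgCl2, 1 mM DTT, 0.01% Tween 20 and 4% DMSO. KD by 1:1 fitting.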

[1] = target: GDP-bound NRAS wild-type protein (Homo sapiens, UniProt P01111); assay: Binding to NRAS by surface plasmon resonance (SPR), KD and KD ratio to KRAS
GDP-bound NRAS wild-type protein, sequence (P01111 whole entry): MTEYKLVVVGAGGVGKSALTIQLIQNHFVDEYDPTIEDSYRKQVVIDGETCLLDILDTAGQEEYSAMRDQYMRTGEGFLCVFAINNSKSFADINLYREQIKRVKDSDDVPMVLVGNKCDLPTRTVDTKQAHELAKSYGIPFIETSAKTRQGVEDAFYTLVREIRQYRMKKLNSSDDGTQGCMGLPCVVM
How it was run: as §1

[2] = test system: human lung cancer strain NCI-H441; assay type: cell-based
How it was run: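 Readout: […] after the ATP-based reagent. Compound: serial dilutions in dimethyl sulfoxide.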

[3] = ratio of KD for HRAS wild-type protein to KD for KRAS
[4] = ratio of KD for GDP-bound NRAS wild-type protein to KD for KRAS
[5] = ratio of the KD value with respect to HRAS wild-type protein to the KD value with respect to KRAS
[6] = ratio of the KD value with respect to GDP-bound NRAS wild-type protein to the KD value with respect to KRAS
[7] = ratio of KD value for HRAS wild-type protein to KD value for KRAS (SPR)
[8] = ratio of KD value for GDP-bound NRAS wild-type protein to KD value for KRAS (SPR)

HRAS wild-type protein, sequence (P01112 whole entry): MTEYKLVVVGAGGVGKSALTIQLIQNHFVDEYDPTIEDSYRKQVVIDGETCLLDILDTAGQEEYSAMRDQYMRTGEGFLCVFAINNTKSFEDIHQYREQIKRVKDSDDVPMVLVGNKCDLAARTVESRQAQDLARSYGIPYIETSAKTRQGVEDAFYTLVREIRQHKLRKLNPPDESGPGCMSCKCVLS

Row | SMILES | HRAS /KRAS (HRAS wild-type protein; [3]) | NRAS /KRAS [1, 4] | IC50 [2] [nM] | HRAS /KRAS (HRAS wild-type protein; [5]) | NRAS /KRAS [1, 6] | other results
1 | CC[C@H](C)[C@@H]1NC(=O)[C@@H]2CCCCc3ccc(cc3)C[C@@H](C(=O)N(C)CC(=O)N[C@@H](CCc3ccc(C(F)(F)F)c(OC)c3)C(=O)N3CC4(CC4)C[C@H]3C(=O)NC3(CC(C)(C)C3)C(=O)N(C)[C@@H](C3CCCC3)C(=O)N(C)[C@H](C(=O)N(C)CC)CC(=O)N2C)N2CC/C=C\C[C@@H](C2=O)N(C)C(=O)CN(C)C1=O [PP3081] | B (a compound having 3 or more and less than 10 is denoted as B) | A (a compound having 10 or more and less than 20 is denoted as A) | 1.9 |  |  | 
2 | CCO[C@@H]1C[C@H]2C(=O)NC3(CCC3)C(=O)N(C)[C@@H](C3CCCC3)C(=O)N(C)[C@H](C(=O)N(C)C)CC(=O)N(C)[C@@H](C)C(=O)N[C@@H]([C@@H](C)CC)C(=O)N(C)CC(=O)N(C)[C@H]3CCCCN(C3=O)[C@@H](Cc3ccc(C(F)(F)F)cc3)C(=O)N(C)CC(=O)N[C@@H](CCc3cc(F)c(C(F)(F)F)c(F)c3)C(=O)N2C1 [PP0587] |  |  | 5.1 | C (A compound having a KD ratio of 0.1 or more and less than 3 is denoted as C) | C (A compound having a KD ratio of 0.1 or more and less than 3 is denoted as C) | 
3 | CCO[C@@H]1C[C@H]2C(=O)NC3(CCC3)C(=O)N(C)[C@@H](C3CCCC3)C(=O)N(C)[C@H](C(=O)N3CCOCC3)CC(=O)N(C)[C@@H](CC3CC3)C(=O)N[C@@H]([C@@H](C)CC)C(=O)N(C)CC(=O)N(C)[C@H]3C/C=C\CCN(C3=O)[C@@H](Cc3ccc(F)cc3)C(=O)N(C)CC(=O)N[C@@H](CCc3cc(F)c(C(F)(F)F)c(F)c3)C(=O)N2C1 [PP1496] |  |  | 36.7 |  |  | HRAS /KRAS (HRAS wild-type protein; [7]): B (a compound having 3 or more and less than 10 is denoted as B); NRAS /KRAS [1, 8]: A (a compound having 10 or more and less than 20 is denoted as A)
4 | CCCOC[C@H]1C(=O)N[C@@H]([C@@H](C)CC)C(=O)N(C2CC2)CC(=O)N(C)[C@H]2C/C=C\CCN(C2=O)[C@@H](Cc2ccc(C)cc2)C(=O)N(C)CC(=O)N[C@@H](CCc2ccc(C(F)(F)F)c(OC)c2)C(=O)N2C[C@H](OCC)C[C@H]2C(=O)N(C)C2(CCC2)C(=O)N(C)[C@@H](C2CCCC2)C(=O)N(C)[C@H](C(=O)N(C)C)CC(=O)N1C [PP2330] |  |  | 5.5 | A (a compound having 10 or more and less than 20 is denoted as A) | A (a compound having 10 or more and less than 20 is denoted as A) | 
5 | CC[C@H](C)[C@@H]1NC(=O)[C@H](CC(F)(F)F)N(C)C(=O)C[C@@H](C(=O)N2CCOCC2)N(C)C(=O)[C@H](C2CCCC2)N(C)C(=O)C2(CCCC2)NC(=O)[C@@H]2CCCN2C(=O)[C@H](CCc2cc(F)c(C(F)(F)F)c(F)c2)NC(=O)CN(C)C(=O)[C@H](Cc2ccc(C(F)(F)F)cc2)N2CCCCC[C@@H](C2=O)N(C)C(=O)CN(C)C1=O [PP0520] |  |  | 17.1 | B (a compound having 3 or more and less than 10 is denoted as B) | B (a compound having 3 or more and less than 10 is denoted as B) | 
6 | CCO[C@@H]1C[C@H]2C(=O)NC3(CCC3)C(=O)N(C)[C@@H](C3CCCC3)C(=O)N(C)[C@H](C(=O)N3CCOCC3)CC(=O)N(CC)[C@@H](CC(C)C)C(=O)N[C@@H]([C@@H](C)CC)C(=O)N(C)CC(=O)N(C)[C@H]3CC(C)=CCN(C3=O)[C@@H](Cc3ccc(C(F)(F)F)cc3)C(=O)N(C)CC(=O)N[C@@H](CCc3cc(F)c(C(F)(F)F)c(F)c3)C(=O)N2C1 [PP1044] | C (A compound having a KD ratio of 0.1 or more and less than 3 is denoted as C) | C (A compound having a KD ratio of 0.1 or more and less than 3 is denoted as C) | 44.1 |  |  | 
7 | CCC(CC)[C@@H]1NC(=O)[C@H](CC(C)C)N(C)C(=O)C[C@@H](C(=O)N2CCOCC2)N(C)C(=O)[C@H](C2CCCC2)N(C)C(=O)C2(CCCC2)NC(=O)[C@@H]2CCCN2C(=O)[C@H](CCc2cc(F)c(C(F)(F)F)c(F)c2)NC(=O)CN(C)C(=O)[C@H](Cc2ccc(C(F)(F)F)cc2)N2CCCCC[C@@H](C2=O)N(C)C(=O)CN(C)C1=O [PP0523] |  |  | 734 | B (a compound having 3 or more and less than 10 is denoted as B) | A (a compound having 10 or more and less than 20 is denoted as A) | 
8 | CCCOC[C@H]1C(=O)N[C@@H]([C@@H](C)CC)C(=O)N(C)CC(=O)N(C)[C@H]2C/C=C\CCN(C2=O)[C@@H](Cc2ccc(C(F)(F)F)cc2)C(=O)N(C)CC(=O)N[C@@H](CCc2ccc(C(F)(F)F)c(OC)c2)C(=O)N2C[C@H](OCC)C[C@H]2C(=O)NC2(CC(C)(C)C2)C(=O)N(C)[C@@H](C2CCCC2)C(=O)N(C)[C@H](C(=O)N(C)C)CC(=O)N1C [PP1657] |  |  | 2 |  |  | HRAS /KRAS (HRAS wild-type protein; [7]): B (a compound having 3 or more and less than 10 is denoted as B); NRAS /KRAS [1, 8]: A (a compound having 10 or more and less than 20 is denoted as A)
9 | CCO[C@@H]1C[C@H]2C(=O)NC3(CCC3)C(=O)N(C)[C@@H](C3CCCC3)C(=O)N(C)[C@H](C(=O)N3CCCCC3)CC(=O)N(C)[C@H]3CCC/C=C/c4ccc(cc4)C[C@@H](C(=O)N(C)CC(=O)N[C@@H](CCc4cc(F)c(C(F)(F)F)c(F)c4)C(=O)N2C1)N1CC/C=C\C[C@@H](C1=O)N(C)C(=O)CN(C1CC1)C(=O)[C@H]([C@@H](C)CC)NC3=O [PP2954] | A (a compound having 10 or more and less than 20 is denoted as A) | A (a compound having 10 or more and less than 20 is denoted as A) | 16.5 |  |  | 
10 | CCO[C@@H]1C[C@H]2C(=O)NC3(CCC3)C(=O)N(C)[C@@H](C3CCCC3)C(=O)N(C)[C@H](C(=O)N(C)C)CC(=O)N(C)[C@@H](CC)C(=O)N[C@@H]([C@@H](C)CC)C(=O)N(C)CC(=O)N(C)[C@H]3CCCCCN(C3=O)[C@@H](Cc3ccc(F)c(Cl)c3)C(=O)N(C)CC(=O)N[C@@H](CCc3cc(F)c(C(F)(F)F)c(F)c3)C(=O)N2C1 [PP0909] | B (a compound having 3 or more and less than 10 is denoted as B) | B (a compound having 3 or more and less than 10 is denoted as B) | 58.1 |  |  | 
11 | CCC[C@H]1C(=O)N[C@@H]([C@@H](C)CC)C(=O)N(C)CC(=O)N(C)[C@H]2C/C=C\CCN(C2=O)[C@@H](Cc2ccc(C(F)(F)F)cc2)C(=O)N(C)CC(=O)N[C@@H](CCc2cc(Cl)c3c(ccn3C)c2)C(=O)N2C[C@H](OCC)C[C@H]2C(=O)NC2(CC(C)(C)C2)C(=O)N(C)[C@@H](C2CCCC2)C(=O)N(C)[C@H](C(=O)N(C)C)CC(=O)N1C [PP2950] | A (a compound having 10 or more and less than 20 is denoted as A) | A (a compound having 10 or more and less than 20 is denoted as A) | 24.2 |  |  | 
12 | CCO[C@@H]1C[C@H]2C(=O)NC3(CC(C)(C)C3)C(=O)N(C)[C@@H](C(CC)CC)C(=O)N(C)[C@H](C(=O)N3CCCC3)CC(=O)N(C)[C@H]3CCC/C=C/c4ccc(cc4)C[C@@H](C(=O)N(C)CC(=O)N[C@@H](CCc4ccc(Cl)c(Cl)c4)C(=O)N2C1)N1CC/C=C\C[C@@H](C1=O)N(C)C(=O)CN(C)C(=O)[C@H]([C@@H](C)CC)NC3=O [PP2581] | A (a compound having 10 or more and less than 20 is denoted as A) | AA (a compound having 20 or more is denoted as AA) | 32.1 |  |  | 
13 | CCO[C@@H]1C[C@H]2C(=O)NC3(CC(C)(C)C3)C(=O)N(C)[C@@H](C3CCCC3)C(=O)N(C)[C@H](CC)CC(=O)N(C)[C@@H](CC3CC3)C(=O)N[C@@H]([C@@H](C)CC)C(=O)N(C)CC(=O)N(C)[C@H]3C/C=C\CCN(C3=O)[C@@H](Cc3ccc(C(F)(F)F)cc3)C(=O)N(C)CC(=O)N[C@@H](CCc3cc(F)c(C(F)(F)F)c(F)c3)C(=O)N2C1 [PP1629] |  |  | 20.7 |  |  | HRAS /KRAS (HRAS wild-type protein; [7]): B (a compound having 3 or more and less than 10 is denoted as B); NRAS /KRAS [1, 8]: B (a compound having 3 or more and less than 10 is denoted as B)
14 | CCO[C@@H]1C[C@H]2C(=O)NC3(CCC3)C(=O)N(C)[C@@H](C3CCCC3)C(=O)N(C)[C@H](C(=O)N(C)CCOC)CC(=O)N(C)[C@@H](CC3CC3)C(=O)N[C@@H]([C@@H](C)CC)C(=O)N(C)CC(=O)N(C)[C@H]3C/C=C\CCN(C3=O)[C@@H](Cc3ccc(C(F)(F)F)cc3)C(=O)N(C)CC(=O)N[C@@H](CCc3ccc(C(F)(F)F)c(OC)c3)C(=O)N2C1 [PP1327] |  |  | 12.4 |  |  | HRAS /KRAS (HRAS wild-type protein; ratio of KD with respect to HRAS wild-type protein to KD with respect to KRAS): A (a compound having 10 or more and less than 20 is denoted as A); NRAS /KRAS ([1]; ratio of KD with respect to GDP-bound NRAS wild-type protein to KD with respect to KRAS): A (a compound having 10 or more and less than 20 is denoted as A)
15 | CC[C@H](C)[C@@H]1NC(=O)[C@H](C(C)C)N(C)C(=O)C[C@@H](C(=O)N(C)CC)N(C)C(=O)[C@H](C2CCCC2)N(C)C(=O)C2(CCC2)NC(=O)[C@@H]2C[C@H](C)CN2C(=O)[C@H](CCc2ccc(C(F)(F)F)c(OC)c2)NC(=O)CN(C)C(=O)[C@H](Cc2ccc(C(F)(F)F)cc2)N2CC/C=C\C[C@@H](C2=O)N(C)C(=O)CN(C)C1=O [PP2065] |  |  | 17 | B (a compound having 3 or more and less than 10 is denoted as B) | A (a compound having 10 or more and less than 20 is denoted as A) | 
16 | CC[C@H](C)[C@@H]1NC(=O)[C@H](CC(C)C)N(C)C(=O)C[C@@H](C(=O)N2CCOCC2)N(C)C(=O)[C@H](C2CCCC2)N(C)C(=O)C2(CCCC2)NC(=O)[C@@H]2CCCN2C(=O)[C@H](CCc2ccc(C(F)(F)F)c(Cl)c2)NC(=O)CN(C)C(=O)[C@H](Cc2ccc(OC)cc2)N2CC=CC[C@@H](C2=O)N(C)C(=O)CN(C)C1=O [PP0535] |  |  | 55.4 | B (a compound having 3 or more and less than 10 is denoted as B) | C (A compound having a KD ratio of 0.1 or more and less than 3 is denoted as C) | 
